Structures can show the parent of a compound that is named as a salt.
Tests used:
PI3Kδ (p110δ/p85α) = target: T1, PI3Kδ (p110δ/p85α) (Homo sapiens, UniProt O00329); assay: PI3Kδ scintillation proximity assay; format: biochemical; conditions: 20 μM ATP, 4 nM PI3Kδ
T1 construct: purchased Millipore (Bedford, Mass.)
Procedure, shortened: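 p110δ/p85α (4 nM) phosphorylated 20 μM PIP2 with 20 μM ATP plus [γ-33P]ATP in 20 mM MOPS pH 6.7, 10 mM MgCl2, 5 mM DTT, 0.03% CHAPS, 0.5% DMSO, 210 min at room temperature. EDTA quench, WGA SPA bead capture, scintillation counting; IC50 from log-concentration fit.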

[1] = system: Pfeiffer cell line (diffuse large B cell lymphoma); assay: Pfeiffer cell proliferation assay; format: cell-based; conditions: Homo sapiens, Pfeiffer, Pfeiffer cells, 3-4 days plus 12 hours [3H]-thymidine incorporation
Description: Example C: Pfeiffer Cell Proliferation Assay
Pfeiffer cell line (diffuse large B cell lymphoma) was purchased from ATCC (Manassas, Va.) and maintained in the culture medium recommended (RPMI and 10% FBS). To measure the anti-proliferation activity of the compounds, the Pfeiffer cells were plated with the culture medium (2×10^3 cells/well/per 200 μl) into 96-well ultra-low binding plates (Corning, Corning, N.Y.), in the presence or absence of a concentration range of test compounds. After 3-4 days, [^3H]-thymidine (1 μCi/well) (PerkinElmer, Boston, Mass.) in PBS was then added to the cell culture for an additional 12 hours before the incorporated radioactivity was separated by filtration with water through GF/B filters (Packard Bioscience, Meridenj, Conn.) and measured by liquid scintillation counting with a TopCount (Packard Bioscience).

T1 sequence (O00329 whole entry, species assumed): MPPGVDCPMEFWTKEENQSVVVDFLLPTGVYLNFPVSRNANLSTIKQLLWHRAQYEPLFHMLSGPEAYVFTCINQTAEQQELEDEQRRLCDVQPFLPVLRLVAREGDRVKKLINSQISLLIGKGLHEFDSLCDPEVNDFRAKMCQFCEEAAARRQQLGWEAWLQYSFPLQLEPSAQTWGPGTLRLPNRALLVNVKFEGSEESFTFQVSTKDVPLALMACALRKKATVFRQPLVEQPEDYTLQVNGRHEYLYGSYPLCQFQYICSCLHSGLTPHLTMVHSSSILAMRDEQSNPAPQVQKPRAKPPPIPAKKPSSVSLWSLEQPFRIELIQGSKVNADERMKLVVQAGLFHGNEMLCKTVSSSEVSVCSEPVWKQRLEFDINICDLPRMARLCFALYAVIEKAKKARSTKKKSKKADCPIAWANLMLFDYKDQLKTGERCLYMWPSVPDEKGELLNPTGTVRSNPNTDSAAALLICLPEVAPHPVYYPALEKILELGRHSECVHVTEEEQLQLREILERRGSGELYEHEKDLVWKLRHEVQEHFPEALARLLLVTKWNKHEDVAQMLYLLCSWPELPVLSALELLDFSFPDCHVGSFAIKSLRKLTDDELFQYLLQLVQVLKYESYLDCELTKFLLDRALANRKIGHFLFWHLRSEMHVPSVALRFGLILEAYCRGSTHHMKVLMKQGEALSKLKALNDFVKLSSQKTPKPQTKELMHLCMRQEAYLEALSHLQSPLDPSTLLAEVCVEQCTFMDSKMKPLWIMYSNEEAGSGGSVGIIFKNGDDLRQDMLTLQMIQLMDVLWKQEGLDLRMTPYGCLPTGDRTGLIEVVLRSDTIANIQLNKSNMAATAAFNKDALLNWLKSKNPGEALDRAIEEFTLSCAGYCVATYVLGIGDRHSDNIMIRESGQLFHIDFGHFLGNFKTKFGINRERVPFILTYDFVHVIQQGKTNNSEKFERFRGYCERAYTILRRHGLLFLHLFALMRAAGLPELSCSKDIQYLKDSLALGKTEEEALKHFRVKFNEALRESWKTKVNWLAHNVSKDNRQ
T1 sequence (P27986 whole entry partner, species assumed): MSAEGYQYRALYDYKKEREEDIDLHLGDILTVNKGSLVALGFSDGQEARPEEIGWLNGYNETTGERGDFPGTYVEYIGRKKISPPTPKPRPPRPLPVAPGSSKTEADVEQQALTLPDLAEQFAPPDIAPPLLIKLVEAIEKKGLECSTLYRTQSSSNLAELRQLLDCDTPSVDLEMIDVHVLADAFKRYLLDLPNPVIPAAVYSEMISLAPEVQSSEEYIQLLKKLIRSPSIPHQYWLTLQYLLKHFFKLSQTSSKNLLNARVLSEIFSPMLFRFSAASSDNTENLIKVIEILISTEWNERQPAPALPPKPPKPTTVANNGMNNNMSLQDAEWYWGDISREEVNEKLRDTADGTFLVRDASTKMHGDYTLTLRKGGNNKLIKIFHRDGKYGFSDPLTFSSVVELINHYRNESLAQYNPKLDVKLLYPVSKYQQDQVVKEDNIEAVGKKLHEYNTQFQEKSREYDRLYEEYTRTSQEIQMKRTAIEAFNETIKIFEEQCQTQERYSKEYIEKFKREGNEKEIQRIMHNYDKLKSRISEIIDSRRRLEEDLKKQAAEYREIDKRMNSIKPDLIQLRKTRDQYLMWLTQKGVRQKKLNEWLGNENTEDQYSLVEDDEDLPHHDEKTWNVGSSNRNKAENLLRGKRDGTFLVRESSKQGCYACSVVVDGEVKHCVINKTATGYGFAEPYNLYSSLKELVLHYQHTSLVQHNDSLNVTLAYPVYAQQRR

IC50 (PI3Kδ (p110δ/p85α)) [nM] | IC50 [1] [nM] | SMILES
< 50 | 100 to 500 | COc1c(C(C)Nc2ncnc3[nH]cnc23)cc(Cl)c(C)c1-c1ccc(OC2CCOCC2)nc1 (stereo not drawn) [Example 45, N-(1-{5-chloro-2-methoxy-4-methyl-3-[6-(tetrahydro-2H-pyran-4-yloxy)pyridin-3-yl]phenyl}ethyl)-9H-purin-6-amine]
50 to 100 | > 1000 | COc1c(C(C)Nc2ncnc3[nH]cnc23)cc(Cl)c(C)c1-c1ccc(F)c(C(F)(F)F)c1 (stereo not drawn) [Example 93, N-{1-[5-chloro-4′-fluoro-2-methoxy-6-methyl-3′-(trifluoromethyl)biphenyl-3-yl]ethyl}-9H-purin-6-amine]
< 50 | < 100 | COc1c(C(C)Nc2ncnc3[nH]cnc23)cc(Cl)c(C)c1-c1ccc(F)c(C(=O)N(C)C)c1 (stereo not drawn) [Example 94, 3′-chloro-4-fluoro-6′-methoxy-N,N,2′-trimethyl-5′-[1-(9H-purin-6-ylamino)ethyl]biphenyl-3-carboxamide]
< 50 | < 100 | COc1c(C(C)Nc2ncnc3[nH]cnc23)cc(Cl)c(Cl)c1C1CN(Cc2cscn2)C1 (stereo not drawn) [Example 204, N-(1-{4,5-Dichloro-2-methoxy-3-[1-(1,3-thiazol-4-ylmethyl)azetidin-3-yl]phenyl}ethyl)-9H-purin-6-amine]
< 50 | < 100 | COc1c(C(C)Nc2ncnc3[nH]cnc23)cc(Cl)c(C)c1-c1ccc(N2CCOCC2)nc1 (stereo not drawn) [Example 48, N-{1-[5-chloro-2-methoxy-4-methyl-3-(6-morpholin-4-ylpyridin-3-yl)phenyl]ethyl}-9H-purin-6-amine]
< 50 | 100 to 500 | COCc1cccc(-c2c(C)c(Cl)cc(C(C)Nc3ncnc4[nH]cnc34)c2OC)c1 (stereo not drawn) [Example 44, N-{1-[5-chloro-2-methoxy-3′-(methoxymethyl)-6-methylbiphenyl-3-yl]ethyl}-9H-purin-6-amine]
< 50 | 100 to 500 | COc1c(C(C)Nc2ncnc3[nH]cnc23)cc(Cl)c(C)c1-c1cccc(F)c1 (stereo not drawn) [Example 28, N-[1-(5-chloro-3′-fluoro-2-methoxy-6-methylbiphenyl-3-yl)ethyl]-9H-purin-6-amine]
< 50 | < 100 | COc1ccc(-c2c(C)c(Cl)cc(C(C)Nc3ncnc4[nH]cnc34)c2OC)cn1 (stereo not drawn) [Example 52, N-{1-[5-chloro-2-methoxy-3-(6-methoxypyridin-3-yl)-4-methylphenyl]ethyl}-9H-purin-6-amine]
< 50 | < 100 | COc1ncc(-c2c(C)c(Cl)cc(C(C)Nc3ncnc4[nH]cnc34)c2OC)cn1 (stereo not drawn) [Example 23, N-{1-[5-chloro-2-methoxy-3-(2-methoxypyrimidin-5-yl)-4-methylphenyl]ethyl}-9H-purin-6-amine]
< 50 | < 100 | COc1c(C(C)Nc2ncnc3[nH]cnc23)cc(Cl)c(C)c1-c1ccc(C(=O)NC2CC2)cc1 (stereo not drawn) [Example 31, 3′-chloro-N-cyclopropyl-6′-methoxy-2′-methyl-5′-[1-(9H-purin-6-ylamino)ethyl]biphenyl-4-carboxamide]
< 50 | < 100 | COc1c(C(C)Nc2ncnc3[nH]cnc23)cc(Cl)c(C)c1-c1cnn(C2CCNCC2)c1 (stereo not drawn) [Example 174, N-{1-[5-chloro-2-methoxy-4-methyl-3-(1-piperidin-4-yl-1H-pyrazol-4-yl)phenyl]ethyl}-9H-purin-6-amine tris(trifluoroacetate)]
< 50 | < 100 | COc1c(C(C)Nc2ncnc3[nH]cnc23)cc(Cl)c(C)c1-c1cccc(C#N)c1 (stereo not drawn) [Example 40, 3′-chloro-6′-methoxy-2′-methyl-5′-[1-(9H-purin-6-ylamino)ethyl]biphenyl-3-carbonitrile]
< 50 | < 100 | COc1c(C(C)Nc2ncnc3[nH]cnc23)cc(Cl)c(C)c1-c1cncc(Cl)c1 (stereo not drawn) [Example 36, N-{1-[5-chloro-3-(5-chloropyridin-3-yl)-2-methoxy-4-methylphenyl]ethyl}-9H-purin-6-amine]
< 50 | 100 to 500 | COc1c(C(C)Nc2ncnc3[nH]cnc23)cc(Cl)c(C)c1-c1cc(F)cc(C(N)=O)c1 (stereo not drawn) [Example 110, 3′-chloro-5-fluoro-6′-methoxy-2′-methyl-5′-[1-(9H-purin-6-ylamino)ethyl]biphenyl-3-carboxamide]

Further lines, the compound ahead of its results:

SMILES | IC50 (PI3Kδ (p110δ/p85α)) [nM] | IC50 [1] [nM]
CCOc1c(C(C)Nc2ncnc3[nH]cnc23)cc(C#N)c(F)c1-c1cncc(S(C)(=O)=O)c1 (stereo not drawn) [Example 212, 4-Ethoxy-2-fluoro-3-[5-(methylsulfonyl)pyridin-3-yl]-5-[1-(9H-purin-6-ylamino)ethyl]benzonitrile bis(trifluoroacetate)] | < 50 | 100 to 500
COc1c(C(C)Nc2ncnc3[nH]cnc23)cc(Cl)c(Cl)c1C1CN(CCO)C1 (stereo not drawn) [Example 196, 2-(3-{2,3-Dichloro-6-methoxy-5-[1-(9H-purin-6-ylamino)ethyl]phenyl}azetidin-1-yl)ethanol bis(trifluoroacetate)] | < 50 | < 100
Cc1noc(C)c1-c1c(C)c(Cl)cc(C(C)Nc2ncnc3[nH]cnc23)c1-c1cc(F)cc(F)c1 (stereo not drawn) [Example 77, N-{1-[4-chloro-6-(3,5-dimethylisoxazol-4-yl)-3′,5′-difluoro-5-methylbiphenyl-2-yl]ethyl}-9H-purin-6-amine] | < 50 | < 100
Cc1c(Cl)cc(C(C)Nc2ncnc3[nH]cnc23)c(-c2cccc(F)c2)c1-c1nnn[nH]1 (stereo not drawn) [Example 8, N-{1-[4-chloro-3′-fluoro-5-methyl-6-(1H-tetrazol-5-yl)biphenyl-2-yl]ethyl}-9H-purin-6-amine] | < 50 | > 1000
Cc1c(Cl)cc(C(C)Nc2ncnc3[nH]cnc23)c(-c2cc(F)cc(F)c2)c1-c1cn[nH]c1 (stereo not drawn) [Example 106, N-{1-[4-Chloro-3′,5′-difluoro-5-methyl-6-(1H-pyrazol-4-yl)biphenyl-2-yl]ethyl}-9H-purin-6-amine] | < 50 | < 100
Cc1c(Cl)cc(C(C)Nc2ncnc3[nH]cnc23)c(-c2cccc(F)c2)c1N1CCOC1=O (stereo not drawn) [Example 7, 3-{4-Chloro-3′-fluoro-3-methyl-6-[1-(9H-purin-6-ylamino)ethyl]biphenyl-2-yl}-1,3-oxazolidin-2-one] | < 50 | < 100
Cc1c(Cl)cc(C(C)Nc2ncnc3[nH]cnc23)c(-c2cc(F)cc(F)c2)c1N1CCCC1=O (stereo not drawn) [Example 6, 1-{4-Chloro-3′,5′-difluoro-3-methyl-6-[1-(9H-purin-6-ylamino)ethyl]biphenyl-2-yl}pyrrolidin-2-one trifluoroacetate] | < 50 | < 100
CCOc1c(C(C)Nc2ncnc3[nH]cnc23)cc(Cl)c(C#N)c1C1CN(CC)C1 (stereo not drawn) [Example 213, 6-Chloro-3-ethoxy-2-(1-ethylazetidin-3-yl)-4-[1-(9H-purin-6-ylamino)ethyl]benzonitrile bis(trifluoroacetate)] | < 50 | < 100
Cc1c(Cl)cc(C(C)Nc2ncnc3[nH]cnc23)c(-c2ccccc2)c1-c1ccc(C#N)cc1 (stereo not drawn) [Example 24, 5′-chloro-6′-methyl-3′-[1-(9H-purin-6-ylamino)ethyl]-1,1′:2′,1″-terphenyl-4-carbonitrile] | < 50 | 100 to 500
CC(=O)Nc1c(C)c(Cl)cc(C(C)Nc2ncnc3[nH]cnc23)c1-c1cccc(F)c1 (stereo not drawn) [Example 9, N-{4-chloro-3′-fluoro-3-methyl-6-[1-(9H-purin-6-ylamino)ethyl]biphenyl-2-yl}acetamide] | 50 to 100 | 100 to 500
COc1ncc(-c2c(C)c(Cl)cc(C(C)Nc3ncnc4[nH]cnc34)c2-c2ccccc2)cn1 (stereo not drawn) [Example 25, N-{1-[4-chloro-6-(2-methoxypyrimidin-5-yl)-5-methylbiphenyl-2-yl]ethyl}-9H-purin-6-amine] | < 50 | < 100
COc1c(C(C)Nc2ncnc3[nH]cnc23)cc(Cl)c(Cl)c1C1CN(CCC(F)(F)F)C1 (stereo not drawn) [Example 205, N-(1-{4,5-Dichloro-2-methoxy-3-[1-(3,3,3-trifluoropropyl)azetidin-3-yl]phenyl}ethyl)-9H-purin-6-amine] | < 50 | < 100
Cc1c(Cl)cc(C(C)Nc2ncnc3[nH]cnc23)c(-c2cc(F)cc(F)c2)c1-c1cc(F)nc(F)c1 (stereo not drawn) [Example 80, N-{1-[4-chloro-6-(2,6-difluoropyridin-4-yl)-3′,5′-difluoro-5-methylbiphenyl-2-yl]ethyl}-9H-purin-6-amine] | < 50 | < 100
Cc1c(Cl)cc(C(C)Nc2ncnc3[nH]cnc23)c(-c2cccc(F)c2)c1N1CCCC1=O (stereo not drawn) [Example 5, 1-{4-Chloro-3′-fluoro-3-methyl-6-[1-(9H-purin-6-ylamino)ethyl]biphenyl-2-yl}pyrrolidin-2-one] | < 50 | < 100
Cc1c(Cl)cc(C(C)Nc2ncnc3[nH]cnc23)c(-c2cccc(F)c2)c1-c1cn[nH]c1 (stereo not drawn) [Example 72, N-{1-[4-Chloro-3′-fluoro-5-methyl-6-(1H-pyrazol-4-yl)biphenyl-2-yl]ethyl}-9H-purin-6-amine trifluoroacetate] | < 50 | < 100
Cc1c(Cl)cc(C(C)Nc2ncnc3[nH]cnc23)c(-c2cccc(F)c2)c1-n1cnnc1 (stereo not drawn) [Example 11, N-{1-[4-chloro-3′-fluoro-5-methyl-6-(4H-1,2,4-triazol-4-yl)biphenyl-2-yl]ethyl}-9H-purin-6-amine] | < 50 | < 100
